Test results from patent publication US9932340B2, “Substituted indoles” (AbbVie Inc., priority 2014, dated 2018).

These molecules were tested against SUV420H1 enzyme (Homo sapiens, UniProt Q4FZB7) (assay: TR-FRET SAH SUV420H1 enzyme inhibition assay). Details: Histone Peptide H4(8-30)me1 and SAM, overnight at room temp, TR-FRET detection of SAH, read-out: TR-FRET SAH_SUV420H1 IC50.
Assay type: biochemical
Procedure, shortened: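 SUV420H1 (90 nM) preincubated 30 min with compound (3-fold dilutions, 50 to 0.00075 μM), then H4(8-30)me1 peptide 5 nM and SAM 4 nM added, overnight at room temp. SAH product detected by TR-FRET with Tb anti-SAH antibody and Oregon Green-SAH in RIPA buffer, 4 h; IC50 from Hill fit, asymptotes fixed 0-100%.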

Chain of SUV420H1 enzyme (Q4FZB7 whole entry): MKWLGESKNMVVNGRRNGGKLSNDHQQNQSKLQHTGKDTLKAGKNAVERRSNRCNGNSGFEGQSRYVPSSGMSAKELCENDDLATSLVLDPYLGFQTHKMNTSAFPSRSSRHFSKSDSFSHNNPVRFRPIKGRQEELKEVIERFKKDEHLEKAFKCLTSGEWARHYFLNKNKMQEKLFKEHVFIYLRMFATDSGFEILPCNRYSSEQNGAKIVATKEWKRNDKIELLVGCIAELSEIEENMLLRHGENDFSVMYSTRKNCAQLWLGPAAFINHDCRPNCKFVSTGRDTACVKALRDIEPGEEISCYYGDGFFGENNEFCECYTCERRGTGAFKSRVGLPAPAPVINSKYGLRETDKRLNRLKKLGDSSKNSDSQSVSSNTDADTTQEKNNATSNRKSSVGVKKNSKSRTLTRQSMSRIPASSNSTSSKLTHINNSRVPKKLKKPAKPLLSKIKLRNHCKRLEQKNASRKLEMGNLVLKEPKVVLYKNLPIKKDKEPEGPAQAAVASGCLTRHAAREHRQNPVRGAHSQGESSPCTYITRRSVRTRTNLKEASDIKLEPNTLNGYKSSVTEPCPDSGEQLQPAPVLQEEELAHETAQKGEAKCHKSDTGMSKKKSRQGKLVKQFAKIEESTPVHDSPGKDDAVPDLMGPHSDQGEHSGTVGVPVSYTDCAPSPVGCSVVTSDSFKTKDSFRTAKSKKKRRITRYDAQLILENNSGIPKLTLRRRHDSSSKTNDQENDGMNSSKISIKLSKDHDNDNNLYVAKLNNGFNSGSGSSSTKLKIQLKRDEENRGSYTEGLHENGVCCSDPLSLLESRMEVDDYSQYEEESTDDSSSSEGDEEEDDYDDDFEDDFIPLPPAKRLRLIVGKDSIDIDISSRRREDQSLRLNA

IC50	SMILES
3.43 µM	Cc1cnc(C(=O)NCc2cc3cc(Cl)cc(Cn4cnc5c(N)ncnc54)c3[nH]2)cn1 [Example 205, N-({7-[(6-amino-9H-purin-9-yl)methyl]-5-chloro-1H-indol-2-yl}methyl)-5-methylpyrazine-2-carboxamide]
0.59 µM	NCc1cc2cc(-c3cccc(C(=O)N4CCOCC4)c3)cc(Cn3cnc4c(N)ncnc43)c2[nH]1 [Example 53, (3-{2-(aminomethyl)-7-[(6-amino-9H-purin-9-yl)methyl]-1H-indol-5-yl}phenyl)(morpholin-4-yl)methanone]
4.77 µM	Cn1ccnc1C(=O)NCc1cc2cc(Cl)cc(Cn3cnc4c(N)ncnc43)c2[nH]1 [Example 154, N-({7-[(6-amino-9H-purin-9-yl)methyl]-5-chloro-1H-indol-2-yl}methyl)-1-methyl-1H-imidazole-2-carboxamide]
1.03 µM	Cc1ncsc1C(=O)NCc1cc2cc(Cl)cc(Cn3cnc4c(N)ncnc43)c2[nH]1 [Example 148, N-({7-[(6-amino-9H-purin-9-yl)methyl]-5-chloro-1H-indol-2-yl}methyl)-4-methyl-1,3-thiazole-5-carboxamide]
2.47 µM	Nc1ncnc2c1ncn2Cc1cc(Cl)cc2cc(CNCc3cc(F)cc(Cl)c3)[nH]c12 [Example 216, 9-[(5-chloro-2-{[(3-chloro-5-fluorobenzyl)amino]methyl}-1H-indol-7-yl)methyl]-9H-purin-6-amine]
1.18 µM	NCc1cc2c(-c3ccccc3F)ccc(Cn3cnc4c(N)ncnc43)c2[nH]1 [Example 74, 9-{[2-(aminomethyl)-4-(2-fluorophenyl)-1H-indol-7-yl]methyl}-9H-purin-6-amine]
12.9 µM	Nc1ncnc2c1ncn2Cc1cc(Cl)cc2cc(CNC(=O)CCc3ccccc3)[nH]c12 [Example 291, N-({7-[(6-amino-9H-purin-9-yl)methyl]-5-chloro-1H-indol-2-yl}methyl)-3-phenylpropanamide]
0.0547 µM	Cc1cc(C(=O)NCc2cc3c(Cl)ccc(Cn4cnc5c(N)ncnc54)c3[nH]2)c(C)nn1 [Example 239, N-({7-[(6-amino-9H-purin-9-yl)methyl]-4-chloro-1H-indol-2-yl}methyl)-3,6-dimethylpyridazine-4-carboxamide]
1.27 µM	COC1CCC(C(=O)NCc2cc3cc(Cl)cc(Cn4cnc5c(N)ncnc54)c3[nH]2)CC1 (centres unmarked) [Example 134, N-({7-[(6-amino-9H-purin-9-yl)methyl]-5-chloro-1H-indol-2-yl}methyl)-4-methoxycyclohexanecarboxamide]
1.93 µM	CC(C)c1ccccc1C(=O)NCc1cc2cc(Cl)cc(Cn3cnc4c(N)ncnc43)c2[nH]1 [Example 314, N-({7-[(6-amino-9H-purin-9-yl)methyl]-5-chloro-1H-indol-2-yl}methyl)-2-(propan-2-yl)benzamide]
10.5 µM	Nc1ncnc2c1ncn2Cc1cc(Cl)cc2cc(CNC(=O)C34CC5CC(CC(C5)C3)C4)[nH]c12 [Example 136, N-({7-[(6-amino-9H-purin-9-yl)methyl]-5-chloro-1H-indol-2-yl}methyl)tricyclo[3.3.1.1^3,7]decane-1-carboxamide]
2.65 µM	Nc1ncnc2c1ncn2Cc1cc(Cl)cc2cc(CNC(=O)c3ccc4cc[nH]c4c3)[nH]c12 [Example 356, N-({7-[(6-amino-9H-purin-9-yl)methyl]-5-chloro-1H-indol-2-yl}methyl)-1H-indole-6-carboxamide]
0.0493 µM	CC(=O)N1CC=C(c2cc(Cn3cnc4c(N)ncnc43)c3[nH]c(CNC(=O)c4ccc(C#N)cc4Cl)cc3c2)CC1 [Example 279, N-({5-(1-acetyl-1,2,3,6-tetrahydropyridin-4-yl)-7-[(6-amino-9H-purin-9-yl)methyl]-1H-indol-2-yl}methyl)-2-chloro-4-cyanobenzamide]
0.24 µM	CN1CCN(C(=O)c2ccc(-c3cc(Cn4cnc5c(N)ncnc54)c4[nH]c(CN)cc4c3)cc2)CC1 [Example 56, (4-{2-(aminomethyl)-7-[(6-amino-9H-purin-9-yl)methyl]-1H-indol-5-yl}phenyl)(4-methylpiperazin-1-yl)methanone]
